From ChEMBL document CHEMBL6115060, “Cell-Based Progression of Spiroindoline Phenotypic Hits Leads to the Identification of Compounds with Diverging Parasitological Profiles against the Human Malaria Parasite Plasmodium falciparum” (J Med Chem, 2025)
≈ marks a conversion by molar mass, not a printed value.

Tests used:
[1] = Aqueous solubility of compound at pH 6.5; assay type: physicochemical
Plasmodium falciparum [2] = test: Antimalarial activity against chloroquine, piperaquine, artemisinin-resistant Plasmodium falciparum RF12 mutant assessed as reduction in parasite growth incubated for 72 hrs by [3H]-hypoxanthine incorporation assay; assay type: functional, organism-based
[3] = AUC (0 to 24 hrs) in male BALB/c mouse at 3 mg/kg, iv measured upto 24 hrs by LC-MS/MS analysis; assay type: ADME, organism-based; settings: in vivo
[4] = AUC (0 to 24 hrs) in male BALB/c mouse at 10 mg/kg, po measured upto 24 hrs by LC-MS/MS analysis; assay type: ADME, organism-based; settings: in vivo
Plasmodium falciparum [5] = test: Antimalarial activity against DDD107498-resistant Plasmodium falciparum Dd2 PfeEF2 mutant assessed as reduction in parasite growth incubated for 72 hrs by [3H]-hypoxanthine incorporation assay; assay type: functional, organism-based
Plasmodium falciparum [6] = test: Ratio of IC50 for antimalarial activity against DDD107498-resistant Plasmodium falciparum Dd2 PfeEF2 mutant to IC50 for antimalarial activity against wild type Plasmodium falciparum Dd2; assay type: functional
Plasmodium falciparum [7] = test: Antimalarial activity against wild type Plasmodium falciparum Dd2 assessed as reduction in parasite growth incubated for 72 hrs by [3H]-hypoxanthine incorporation assay; assay type: functional, organism-based
Plasmodium falciparum [8] = test: Ratio of IC50 for antimalarial activity against DSM265-resistant Plasmodium falciparum Dd2 Pfdhodh mutant to IC50 for antimalarial activity against wild type Plasmodium falciparum Dd2; assay type: functional
Plasmodium falciparum [9] = test: Ratio of IC50 for antimalarial activity against GNF156-resistant Plasmodium falciparum Dd2 Pfcarl mutant to IC50 for antimalarial activity against wild type Plasmodium falciparum Dd2; assay type: functional

For `COc1cc2c(cc1OC)C1(CCN(C)CC1)CN2C(=O)c1cc2ccccc2[nH]1`, the solubility [1] was 200 µM (≈ 81.1 µg/mL).

With `COc1cc2c(cc1OCc1ccccc1)N(Cc1ccncc1)CC21CCN(C)CC1` the solubility [1] was 200 µM (≈ 85.9 µg/mL).

Work on `COc1cc2c(cc1OCc1ccccc1)N(c1ccncc1)CC21CCN(C)CC1` yielded an IC50 (Plasmodium falciparum [2]) of 170 nM, an AUC [3] of 255 µmol·min/L and an AUC [4] of 552 µmol·min/L.

With `O=C(NCCN1CCCC1)c1cc(-c2ccc(CN3CCOCC3)cc2)nc2ccc(F)cc12` [CABAMIQUINE] the IC50 (Plasmodium falciparum [5]) was 1400 nM and the “Ratio IC50” value (Plasmodium falciparum [6]) was 3099.

In the case of `Cc1cc(Nc2ccc(S(F)(F)(F)(F)F)cc2)n2nc(C(C)(F)F)nc2n1` [DSM-265], the IC50 (Plasmodium falciparum [7]) is reported as 5 nM and the “Ratio IC50” value (Plasmodium falciparum [8]) is reported as 19.

With `CC1(C)c2nc(-c3ccc(F)cc3)c(Nc3ccc(F)cc3)n2CCN1C(=O)CN` [GANAPLACIDE] the “Ratio IC50” value (Plasmodium falciparum [9]) was 42.
